Measurements from patent publication US10188650B2, “Treatment of neurological disorders” (THE REGENTS OF THE UNIVERSITY OF MICHIGAN, priority 2014, dated 2019).
“Also recorded” adds a separate entry of the source.

Assays:
Drosophila Abl = target: T1, Drosophila Abl (Drosophila melanogaster, UniProt P00522); assay: Abl activity in Schneider 2 cells expressing Drosophila Abl, western blot with anti-phospho-Y412-Abl antibody; assay type: cell-based; settings: nilotinib 5 μM, 6 hours, S2 cells expressing Drosophila Abl
T1 construct: the full-length cDNA of Drosophila Abl was obtained by ligating two fragments; Myc; expressed in transfected cells; host or cells: Drosophila Schneider 2 (S2) cells
T1 sequence (P00522 whole entry, the tested form may be a part): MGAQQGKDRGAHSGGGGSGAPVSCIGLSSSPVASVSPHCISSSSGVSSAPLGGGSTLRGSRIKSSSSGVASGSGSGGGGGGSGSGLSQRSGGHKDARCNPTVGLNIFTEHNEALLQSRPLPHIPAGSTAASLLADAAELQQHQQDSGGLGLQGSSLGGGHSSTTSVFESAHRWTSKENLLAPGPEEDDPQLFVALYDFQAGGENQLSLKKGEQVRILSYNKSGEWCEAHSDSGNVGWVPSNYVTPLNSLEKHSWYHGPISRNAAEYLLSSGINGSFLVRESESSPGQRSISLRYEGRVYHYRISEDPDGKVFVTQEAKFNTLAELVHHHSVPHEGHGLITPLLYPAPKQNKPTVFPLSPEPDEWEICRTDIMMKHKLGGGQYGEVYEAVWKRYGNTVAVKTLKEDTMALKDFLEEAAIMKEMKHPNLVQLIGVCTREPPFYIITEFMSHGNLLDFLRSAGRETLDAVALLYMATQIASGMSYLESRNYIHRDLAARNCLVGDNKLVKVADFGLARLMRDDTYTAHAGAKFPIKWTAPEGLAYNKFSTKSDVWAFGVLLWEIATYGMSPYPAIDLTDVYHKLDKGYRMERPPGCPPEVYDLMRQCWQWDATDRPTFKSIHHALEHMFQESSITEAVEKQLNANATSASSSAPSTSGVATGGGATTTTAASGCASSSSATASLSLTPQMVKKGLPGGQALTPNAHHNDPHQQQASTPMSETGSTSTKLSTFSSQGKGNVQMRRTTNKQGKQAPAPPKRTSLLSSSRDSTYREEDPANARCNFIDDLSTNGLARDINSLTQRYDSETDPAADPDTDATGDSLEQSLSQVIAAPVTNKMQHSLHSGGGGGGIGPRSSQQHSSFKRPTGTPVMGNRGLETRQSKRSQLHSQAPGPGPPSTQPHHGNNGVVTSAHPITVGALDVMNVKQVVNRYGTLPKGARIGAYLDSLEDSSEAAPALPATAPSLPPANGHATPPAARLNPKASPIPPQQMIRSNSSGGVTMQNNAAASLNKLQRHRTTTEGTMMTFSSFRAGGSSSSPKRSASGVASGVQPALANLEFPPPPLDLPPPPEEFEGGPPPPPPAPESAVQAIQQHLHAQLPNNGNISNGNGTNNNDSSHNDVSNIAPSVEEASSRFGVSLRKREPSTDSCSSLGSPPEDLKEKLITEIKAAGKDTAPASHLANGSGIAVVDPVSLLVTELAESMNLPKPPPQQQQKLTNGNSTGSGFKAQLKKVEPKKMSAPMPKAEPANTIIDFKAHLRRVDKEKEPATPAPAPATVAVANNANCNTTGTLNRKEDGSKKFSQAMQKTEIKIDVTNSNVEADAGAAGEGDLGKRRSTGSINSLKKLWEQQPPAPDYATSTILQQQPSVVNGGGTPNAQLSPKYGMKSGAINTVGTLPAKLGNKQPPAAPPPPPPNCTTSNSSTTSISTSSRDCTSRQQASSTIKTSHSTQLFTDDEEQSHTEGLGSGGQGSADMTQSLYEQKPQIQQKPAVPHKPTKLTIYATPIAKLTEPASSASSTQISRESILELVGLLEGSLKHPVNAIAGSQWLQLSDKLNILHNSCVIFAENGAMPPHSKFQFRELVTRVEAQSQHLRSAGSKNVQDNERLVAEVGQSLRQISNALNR
Method: Abl activity was assessed by western blotting analysis with an anti-phospho-Y412-Abl antibody.
Drosophila Schneider 2 cells were maintained in Drosophila Schneider's medium (Life Technologies) supplemented with 10% fetal bovine serum (Sigma-Aldrich, St. Louis, Mo.) in a humidified atmosphere at 26° C. Cells grown on tissue culture plates were transfected with Lipofectamine 2000 (Life Technologies) according to manufacturer's recommendation. Cells were harvested two days after transfection, lysed in SDS sample buffer, and subjected to western blot analysis. In some experiments, cells were transfected with indicated DNA constructs together with tubulin-Gal4 (Lee and Luo, 2001) by using Lipofectamine 2000 (Invitrogen) according to manufacturer's protocol.
Western blot analysis was performed as follows.
(§1) Sample preparation, imaging, and quantification were then completed as described above.
During the development of embodiments of the technology provided herein, experiments were performed to assess the effects of Abl kinase inhibitors on Dscam-induced axonal overgrowth. […] Abl activity was assessed by western blotting analysis with an anti-phospho-Y412-Abl antibody.

P-glycoprotein = P-glycoprotein (Homo sapiens, UniProt P08183); settings: cited from earlier work
P-glycoprotein, sequence (P08183 whole entry): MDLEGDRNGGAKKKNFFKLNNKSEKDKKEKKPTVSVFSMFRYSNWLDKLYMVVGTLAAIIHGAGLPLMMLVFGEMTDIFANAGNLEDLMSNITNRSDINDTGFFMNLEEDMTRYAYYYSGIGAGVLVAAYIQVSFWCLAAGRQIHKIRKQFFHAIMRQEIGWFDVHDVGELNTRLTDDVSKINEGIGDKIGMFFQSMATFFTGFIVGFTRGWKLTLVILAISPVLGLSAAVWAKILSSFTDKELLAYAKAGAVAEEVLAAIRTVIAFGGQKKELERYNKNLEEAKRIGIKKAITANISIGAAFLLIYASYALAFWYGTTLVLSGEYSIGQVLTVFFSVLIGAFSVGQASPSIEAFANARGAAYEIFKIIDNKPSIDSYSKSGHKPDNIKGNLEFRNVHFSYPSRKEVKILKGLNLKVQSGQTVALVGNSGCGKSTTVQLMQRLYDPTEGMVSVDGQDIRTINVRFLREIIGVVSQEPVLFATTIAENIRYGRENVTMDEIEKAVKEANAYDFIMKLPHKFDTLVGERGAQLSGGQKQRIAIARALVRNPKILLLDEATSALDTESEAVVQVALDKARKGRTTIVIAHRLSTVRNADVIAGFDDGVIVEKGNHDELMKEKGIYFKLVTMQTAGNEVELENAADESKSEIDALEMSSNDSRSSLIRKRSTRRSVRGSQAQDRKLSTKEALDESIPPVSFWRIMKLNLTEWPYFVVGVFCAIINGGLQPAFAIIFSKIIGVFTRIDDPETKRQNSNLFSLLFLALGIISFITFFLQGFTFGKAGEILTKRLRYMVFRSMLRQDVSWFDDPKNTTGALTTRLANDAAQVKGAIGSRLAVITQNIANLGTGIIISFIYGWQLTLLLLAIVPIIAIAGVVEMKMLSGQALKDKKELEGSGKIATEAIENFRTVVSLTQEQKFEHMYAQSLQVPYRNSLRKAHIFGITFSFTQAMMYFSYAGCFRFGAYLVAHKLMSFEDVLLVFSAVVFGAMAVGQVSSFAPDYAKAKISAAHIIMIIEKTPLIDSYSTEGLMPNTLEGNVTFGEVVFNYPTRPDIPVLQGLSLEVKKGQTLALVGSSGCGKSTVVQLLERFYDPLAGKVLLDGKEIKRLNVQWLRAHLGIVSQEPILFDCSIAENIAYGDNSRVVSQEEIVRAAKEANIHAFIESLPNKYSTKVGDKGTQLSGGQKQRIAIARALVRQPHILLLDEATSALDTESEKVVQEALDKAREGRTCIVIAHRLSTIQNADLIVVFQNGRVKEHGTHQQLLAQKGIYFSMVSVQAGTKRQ

[1] = system: C4da neurons overexpressing Dscam; assay: Axon terminal overgrowth induced by Dscam overexpression in single C4da neurons (MARCM), larvae fed drug; assay type: in vivo, Drosophila; settings: larvae reared in food containing 380 μM nilotinib (figure legend: 0.4 mM), 4 days
Text: The genetic technique MARCM was used to express the Dscam transgene in single C4da neurons and to label the morphology of the axon terminals.
The MARCM technique was used to generate and label C4da neurons homozygous for abl^1 or abl^4 mutations and C4da neurons overexpressing Dscam[TM2]:GFP.
Antibodies used include chicken anti-GFP (Ayes) and rabbit anti-RFP (Rockland). Samples were dehydrated and mounted with DPX mounting media (Electron Microscopy Sciences). Confocal imaging was completed with a Leica SP5 confocal system equipped with a resonant scanner and 63× oil-immersion lens (NA=1.40).
as §1
In particular, the genetic mosaic analysis MARCM was used to express the Dscam transgene in single C4da neurons and to label the morphology of the axon terminals. […] Expression of Dscam transgene was achieved by the C4da-specific driver ppk-Gal4 and UAS-Dscam::GFP transgenes. […] Dscam expression levels (GFP intensity) were measured from the C4da neuron cell body.

[2] = system: dFMRP mutant C4da neurons; assay: Axon terminal overgrowth in dFMRP mutants (Fragile X Syndrome model), larvae fed drug; assay type: in vivo, Drosophila; settings: larvae raised with nilotinib 4 days; vehicle-fed mutants 130%
Text: The MARCM technique was used to generate and visualize single axon terminals of mutant C4da neurons. […] FIG. 10c summarizes the data from FIG. 6, FIG. 10A and FIG. 10B relating to quantification of the axon terminal length of the indicated genotype and drug treatment. […] Scale bar is 10 μm. Two-way Student's t-test was used for statistical analysis. *: p<0.05; **: p<0.01; ***: p<0.001; ****; p<0.0001.
The MARCM technique was used to generate and label C4da neurons homozygous for abl^1 or abl^4 mutations and C4da neurons overexpressing Dscam[TM2]:GFP. MARCM clones were induced as previously described in Ye et al. (2011) Journal of Neuroscience 31: 3309-3319. Confocal images were collected and analyzed as described in Kim et al. (2013) Neuron 78: 827-838. The MARCM technique was used to visualize single neurons homozygous for abl^1, abl^4, or dFMRP^Δ50 and overexpressing Dscam[3.36.25.2]:GFP as previously described (Kim, et al., 2013).
as §1
Fragile X Syndrome (FXS) is caused by an absence of Fragile X mental retardation protein (FMRP) (Kremer, et al. (1991) Science 252: 1711-14), and is modeled in Drosophila using loss-of-function mutants for the Drosophila homolog of […], dFMRP (Zhang, et al. (2001) Cell 107:591-603; Dockendorff, et al. (2002) Neuron 34: 973-84).

Human pharmacokinetics = assay type: in vivo; settings: estimated
[3] = human, oral capsule; cited from earlier work
OCT1 = target: T2, OCT1 (Homo sapiens, UniProt O15245); settings: entry into cell cytoplasm; cited from earlier work
T2 sequence (O15245 1-554): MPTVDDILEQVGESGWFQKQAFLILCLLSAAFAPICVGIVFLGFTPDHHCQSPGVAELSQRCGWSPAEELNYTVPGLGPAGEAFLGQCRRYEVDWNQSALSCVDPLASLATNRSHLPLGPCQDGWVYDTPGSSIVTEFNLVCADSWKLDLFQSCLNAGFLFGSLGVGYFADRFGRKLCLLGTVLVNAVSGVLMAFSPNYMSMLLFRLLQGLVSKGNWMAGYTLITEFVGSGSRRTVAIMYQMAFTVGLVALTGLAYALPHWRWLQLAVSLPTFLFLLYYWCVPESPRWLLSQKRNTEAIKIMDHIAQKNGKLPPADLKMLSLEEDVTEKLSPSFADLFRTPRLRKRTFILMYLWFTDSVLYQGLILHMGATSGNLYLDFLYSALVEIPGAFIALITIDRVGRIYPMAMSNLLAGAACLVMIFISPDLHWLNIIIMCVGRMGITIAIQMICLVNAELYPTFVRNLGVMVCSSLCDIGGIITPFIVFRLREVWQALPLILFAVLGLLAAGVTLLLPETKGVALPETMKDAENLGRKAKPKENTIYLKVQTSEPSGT

[4] = pediatric patient studies; cited from earlier work

## Cc1cn(-c2cc(NC(=O)c3ccc(C)c(Nc4nccc(-c5cccnc5)n4)c3)cc(C(F)(F)F)c2)cn1 [nilotinib, 4-methyl-N-[3-(4-methyl-1-H-imidazol-1-yl)-5-(trifluoromethyl)phenyl]-3-[(4-pyridin-3-ylpyrimidin-2-yl)amino]benzamide]
Drosophila Abl
  Abl activity (phospho-Y412-Abl): completely suppressed
P-glycoprotein
  substrate for the efflux transporter P-glycoprotein pump: not a substrate
[1]
  Dscam-induced axon terminal overgrowth: nearly completely suppressed; also recorded: suppresses axon terminal overgrowth
[2]
  axon terminal length in dFMRP mutants: 103 % of control
Human pharmacokinetics
  concentration in a human: approximately 1.3 μmol/liter
[3]
  bioavailability: approximately 30%
OCT1
  influx dependent on OCT1: is not

## Cc1ccc(NC(=O)c2ccc(CN3CCN(C)CC3)cc2)cc1Nc1nccc(-c2cccnc2)n1 [imatinib]
P-glycoprotein
  substrate for the efflux transporter P-glycoprotein pump: substrate

## Cc1nc(Nc2ncc(C(=O)Nc3c(C)cccc3Cl)s2)cc(N2CCN(CCO)CC2)n1 [Dasatinib]
P-glycoprotein
  substrate for the efflux transporter P-glycoprotein pump: not a substrate
[4]
  tolerance in children: good tolerance
